# Laboratory results taken from the supplement of paper PMC10307832.
# Compound: C[C@@H](Oc1cc(-c2cnn(C3CCNCC3)c2)cnc1N)c1c(Cl)ccc(F)c1Cl [Crizotinib] + CC(=O)Nc1cccc(-n2c(=O)n(C3CC3)c(=O)c3c(Nc4ccc(I)cc4F)n(C)c(=O)c(C)c32)c1 [Trametinib] (partner 0.02 µM)
# Experiment: relative viability (nuclei count vs DMSO), 5 days (fraction); higher = more cells survive
# Conditions: first compound 0.03162 µM
# Outline: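 A single step with final 0.05% Triton X-100, 1% formaldehyde and 1 ug/ml Hoechst fixed the cells and stained nuclei 5 days after treatment. Lung cancer cell lines in 1536-well plates had been treated by pin tool the day after seeding with one drug alone or a fixed anchor-drug dose plus five library-drug doses (not always all listed) in √10 steps, and nuclei were counted on 4× images. Relative viability is the ratio of nuclei in treated wells to nuclei in vehicle wells, taken as the median of duplicate plates.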
row,Cell Line,relative viability
1,NCI-H838,0.513
2,NCI-H1355,0.409
3,NCI-H1395,1.05
4,NCI-H1437,0.577
5,NCI-H1648,0.462
6,NCI-H1650,0.605
7,NCI-H1651,0.832
8,NCI-H1666,0.865
9,NCI-H1734,0.621
10,NCI-H1755,0.744
11,NCI-H1792,0.526
12,NCI-H1915,0.31
13,NCI-H1944,0.426
14,NCI-H1975,0.326
15,NCI-H1993,0.454
16,NCI-H2009,0.277
17,NCI-H2023,0.489

row,Cell Line,relative viability
1,NCI-H2085,0.485
2,NCI-H2087,0.206
3,NCI-H2126,0.539
4,NCI-H2170,0.993
5,NCI-H2228,0.492
6,NCI-H2342,0.896
7,NCI-H2347,0.274
8,NCI-H2405,0.636
9,NCI-H3122,0.219
10,PC-3 [JPC-3],0.721
11,PC-14,0.742
12,RERF-LC-KJ,0.885
13,SK-LU-1,0.396
14,SK-MES-1,0.561
15,SW 900,0.9
16,SW 1573,0.473
17,UMC-11,0.751

# Same assay, conditions: first compound 0.1 µM
row,Cell Line,relative viability
1,NCI-H727,0.344
2,NCI-H838,0.576
3,NCI-H1355,0.45
4,NCI-H1395,1.04
5,NCI-H1437,0.544
6,NCI-H1648,0.539
7,NCI-H1650,0.607
8,NCI-H1651,0.822
9,NCI-H1666,0.866
10,NCI-H1734,0.629
11,NCI-H1755,0.85
12,NCI-H1792,0.365
13,NCI-H1915,0.32
14,NCI-H1944,0.428
15,NCI-H1975,0.363
16,NCI-H1993,0.506
17,NCI-H2009,0.26
18,NCI-H2023,0.484

row,Cell Line,relative viability
1,NCI-H2085,0.691
2,NCI-H2087,0.214
3,NCI-H2126,0.557
4,NCI-H2170,0.869
5,NCI-H2228,0.648
6,NCI-H2342,0.78
7,NCI-H2347,0.292
8,NCI-H2405,0.657
9,NCI-H3122,0.197
10,PC-3 [JPC-3],0.759
11,PC-14,0.78
12,RERF-LC-KJ,0.831
13,SK-LU-1,0.539
14,SK-MES-1,0.54
15,SW 900,0.752
16,SW 1573,0.594
17,UMC-11,0.683

# Same assay, conditions: first compound 0.3162 µM
row,Cell Line,relative viability
1,NCI-H727,0.434
2,NCI-H838,0.515
3,NCI-H1355,0.396
4,NCI-H1395,0.971
5,NCI-H1437,0.457
6,NCI-H1648,0.483
7,NCI-H1650,0.559
8,NCI-H1651,0.792
9,NCI-H1755,0.756
10,NCI-H1915,0.293
11,NCI-H1944,0.372
12,NCI-H1975,0.373
13,NCI-H1993,1.07
14,NCI-H2009,0.217
15,NCI-H2023,0.343
16,NCI-H2085,0.479

row,Cell Line,relative viability
1,NCI-H2087,0.23
2,NCI-H2126,0.55
3,NCI-H2170,0.928
4,NCI-H2228,0.3
5,NCI-H2342,0.868
6,NCI-H2347,0.321
7,NCI-H2405,0.619
8,NCI-H3122,0.21
9,PC-14,0.699
10,RERF-LC-KJ,0.827
11,SK-LU-1,0.457
12,SK-MES-1,0.621
13,SW 900,0.938
14,SW 1573,0.567
15,UMC-11,0.227

# Same assay, conditions: first compound 1 µM
row,Cell Line,relative viability
1,NCI-H727,0.381
2,NCI-H838,0.498
3,NCI-H1355,0.404
4,NCI-H1395,1.1
5,NCI-H1437,0.608
6,NCI-H1648,0.463
7,NCI-H1650,0.58
8,NCI-H1651,0.803
9,NCI-H1666,0.902
10,NCI-H1734,0.67
11,NCI-H1755,0.742
12,NCI-H1792,0.453
13,NCI-H1915,0.313
14,NCI-H1944,0.417
15,NCI-H1975,0.402
16,NCI-H1993,0.46
17,NCI-H2009,0.301
18,NCI-H2023,0.468

row,Cell Line,relative viability
1,NCI-H2085,0.529
2,NCI-H2087,0.172
3,NCI-H2126,0.591
4,NCI-H2170,0.909
5,NCI-H2228,0.521
6,NCI-H2342,0.829
7,NCI-H2347,0.272
8,NCI-H2405,0.711
9,NCI-H3122,0.238
10,PC-3 [JPC-3],0.651
11,PC-14,0.756
12,RERF-LC-KJ,0.905
13,SK-LU-1,0.512
14,SK-MES-1,0.57
15,SW 900,0.614
16,SW 1573,0.615
17,UMC-11,0.985
